From ChEMBL document CHEMBL1811877, “Bioactive neolignans and lignans from the bark of Machilus robusta” (J Nat Prod, 2011)
The source made the active and inactive calls.

Columns and labels:
PC-12 [1] = assay: Cytoprotection against serum deprivation-induced cellular damage of rat PC12 cells assessed as increase in cell viability at 10 uM after 48 hrs by MTT assay (reference value: 66.6 +/- 9.2%); assay type: functional
[2] = system: Human immunodeficiency virus 1; assay: Antiviral activity against Human immunodeficiency virus 1 assessed as inhibition of viral replication; assay type: functional, organism-based
PC-12 [3] = assay: Cytoprotection against rotenone-induced toxicity in rat PC12 cells assessed as increase in cell viability at 10 uM after 48 hrs by MTT assay (reference value: 73.0 +/- 9.6%); assay type: functional
[4] = system: Human immunodeficiency virus 1; assay: Antiviral activity against Human immunodeficiency virus 1 assessed as inhibition of viral replication at 0.001 uM; assay type: functional
WB-F344 = assay: (§1) Hepatoprotective activity in rat WB-F344 cells assessed as inhibition of D-galactosamine-induced cell damage at 10 uM treated 1 hr before D-galactosamine challenge after 24 hrs by MTT assay; assay type: functional
[5] = as §1; assay type: functional

COc1cc([C@H]2O[C@@H](c3cc(OC)c(O)c(OC)c3)[C@H](C)[C@@H]2C)ccc1O
inactive: Activity (PC-12 [1]) | inhibition [2] | Activity (PC-12 [3]) | inhibition [4] | inhibition (WB-F344)

O=C1Nc2ccc(Cl)cc2[C@@](C#CC2CC2)(C(F)(F)F)O1 [EFAVIRENZ]
42.5%: inhibition at 0.001 µM [4]

COC(=O)c1cc(OC)c2c(c1-c1c(CO)cc(OC)c3c1OCO3)OCO2 [BICYCLOL]
67%: inhibition at 10 µM [5]

COc1cc([C@@H]2OC[C@H](Cc3cc(OC)c(O)c(OC)c3)[C@H]2C)ccc1O
inactive: Activity (PC-12 [1]) | inhibition [2] | Activity (PC-12 [3]) | inhibition [4] | inhibition (WB-F344)

COc1cc(C[C@H](COC(C)=O)[C@H](C)Cc2cc(OC)c(O)c(OC)c2)ccc1O
inactive: Activity (PC-12 [1]) | inhibition [2] | Activity (PC-12 [3]) | inhibition [4] | inhibition (WB-F344)

COc1cc2c(cc1O)[C@H](c1ccc(O)c(O)c1)[C@@H](C)[C@@H](C)C2
inactive: Activity (PC-12 [1]) | inhibition [2] | Activity (PC-12 [3]) | inhibition [4] | inhibition (WB-F344)

COc1cc(C[C@H](C)[C@H](C)Cc2cc(OC)c(O)c(OC)c2)ccc1O
inactive: Activity (PC-12 [1]) | inhibition [2] | Activity (PC-12 [3]) | inhibition [4] | inhibition (WB-F344)

COc1cc2c(cc1O)[C@H](c1cc(OC)c(O)c(OC)c1)[C@@H](C)[C@@H](COC(C)=O)C2
inactive: Activity (PC-12 [1]) | inhibition [2] | Activity (PC-12 [3]) | inhibition [4] | inhibition (WB-F344)

COc1cc2c(cc1O)[C@H](c1cc(OC)c(OC)c(OC)c1)[C@@H](C)[C@@H](C)C2
inactive: Activity (PC-12 [1]) | inhibition [2] | Activity (PC-12 [3]) | inhibition [4] | inhibition (WB-F344)

COc1cc(C[C@H](C)[C@H](C)Cc2cc(OC)c(O[C@@H](C)[C@@H](O)c3ccc(O)c(OC)c3)c(OC)c2)ccc1O
2010 nM: IC50 [2]
inactive: Activity (PC-12 [1]) | Activity (PC-12 [3]) | inhibition [4] | inhibition (WB-F344)

COc1cc(C[C@H](C)[C@H](C)Cc2cc(OC)c(OC)c(OC)c2)ccc1O
inactive: Activity (PC-12 [1]) | inhibition [2] | Activity (PC-12 [3]) | inhibition [4] | inhibition (WB-F344)

COc1cc([C@H](O)[C@@H](C)Oc2ccc([C@H]3c4cc(O)c(OC)cc4C[C@@H](C)[C@@H]3C)cc2OC)ccc1O
inactive: Activity (PC-12 [1]) | inhibition [2] | Activity (PC-12 [3]) | inhibition [4] | inhibition (WB-F344)

COc1cc(C[C@H](C)[C@H](C)Cc2cc(OC)c(O[C@H](C)[C@@H](O)c3ccc(O)c(OC)c3)c(OC)c2)ccc1O
inactive: Activity (PC-12 [1]) | Activity (PC-12 [3]) | inhibition [4] | inhibition (WB-F344)
2520 nM: IC50 [2]

COc1cc(C[C@H](C)[C@H](C)Cc2ccc(O)cc2)ccc1O
inactive: Activity (PC-12 [1]) | inhibition [2] | Activity (PC-12 [3]) | inhibition [4] | inhibition (WB-F344)

COc1cc2c(cc1O)[C@H](c1cc(OC)c(O)c(OC)c1)[C@@H](C)[C@@H](C)C2
64%: inhibition at 10 µM [5]
inactive: Activity (PC-12 [1]) | inhibition [2] | Activity (PC-12 [3]) | inhibition [4]

COc1cc(C[C@H](C)[C@H](C)Cc2cc(O)c(O)c(OC)c2)ccc1O
inactive: Activity (PC-12 [1]) | inhibition [2] | inhibition [4]
96.2%: Activity (PC-12 [3])
68%: inhibition at 10 µM [5]

COc1cc([C@@H]2OC[C@H]3[C@@H]2CO[C@H]3c2ccc(O)c(OC)c2)ccc1O [(-)-PINORESINOL]
73.2%: Activity (PC-12 [1])

COc1cc([C@H]2c3c(cc(OC)c(O)c3OC)C[C@@H](CO)[C@@H]2CO)cc(OC)c1O
79.4%: Activity (PC-12 [1])

COc1cc2c(cc1O)C(=O)[C@H](C)[C@H](C)C2
inactive: Activity (PC-12 [1]) | inhibition [2] | Activity (PC-12 [3]) | inhibition [4] | inhibition (WB-F344)

COc1cc(C[C@H](C)[C@H](COC(C)=O)Cc2cc(OC)c(O)c(OC)c2)ccc1O
inactive: Activity (PC-12 [1]) | inhibition [2] | Activity (PC-12 [3]) | inhibition [4] | inhibition (WB-F344)

COc1cc2c(cc1O)C(=O)[C@H](C)[C@@H](C)C2
inactive: Activity (PC-12 [1]) | inhibition [2] | Activity (PC-12 [3]) | inhibition [4] | inhibition (WB-F344)

COc1cc2c(cc1O)[C@H](c1cc(O)c(O)c(OC)c1)[C@@H](C)[C@@H](C)C2
inactive: Activity (PC-12 [1]) | inhibition [2] | Activity (PC-12 [3]) | inhibition [4]
77.2%: inhibition at 10 µM [5]
